The results in this text go back to US20260240850A1, “Compositions and Methods for Treating MALT1 Associated Diseases” (Rarefied Biosciences, Inc., priority 2023, published 2026).

In one experiment the target is T1, full-length human MALT1 (Homo sapiens, UniProt Q9UDY8).
T1 construct: Recombinant full-length human MALT1 protein was expressed and purified; made in house
T1 sequence (Q9UDY8 1-824): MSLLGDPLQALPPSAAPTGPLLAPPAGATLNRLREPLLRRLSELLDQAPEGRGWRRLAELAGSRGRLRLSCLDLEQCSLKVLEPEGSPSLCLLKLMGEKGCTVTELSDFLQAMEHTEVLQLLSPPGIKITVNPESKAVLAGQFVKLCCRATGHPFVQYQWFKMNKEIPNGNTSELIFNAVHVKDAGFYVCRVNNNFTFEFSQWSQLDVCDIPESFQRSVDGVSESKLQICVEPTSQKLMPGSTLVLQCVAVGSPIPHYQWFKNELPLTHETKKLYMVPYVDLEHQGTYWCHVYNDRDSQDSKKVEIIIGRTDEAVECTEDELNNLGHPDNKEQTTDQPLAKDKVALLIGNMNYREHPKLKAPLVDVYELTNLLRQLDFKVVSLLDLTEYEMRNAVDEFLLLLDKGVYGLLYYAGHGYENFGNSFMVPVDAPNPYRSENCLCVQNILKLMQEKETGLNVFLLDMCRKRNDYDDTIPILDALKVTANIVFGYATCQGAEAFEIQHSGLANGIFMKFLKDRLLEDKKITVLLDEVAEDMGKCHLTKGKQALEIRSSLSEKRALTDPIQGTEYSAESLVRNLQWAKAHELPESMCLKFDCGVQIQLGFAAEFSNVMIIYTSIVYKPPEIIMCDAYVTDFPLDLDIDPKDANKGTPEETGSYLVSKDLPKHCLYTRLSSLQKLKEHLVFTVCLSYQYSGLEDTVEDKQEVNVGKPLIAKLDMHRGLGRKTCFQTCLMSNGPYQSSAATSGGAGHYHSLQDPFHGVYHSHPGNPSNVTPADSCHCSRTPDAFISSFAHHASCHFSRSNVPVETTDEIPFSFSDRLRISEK
Put plainly: MALT1 cleavage of HOIL1 (Example 5). Conditions: HOIL1 0.05 μg/μL with MALT1, 2 h at 37° C.; gel electrophoresis/immunoblot. Type of experiment: biochemical. As for the experimental part: Recombinant full-length human MALT1 protein was expressed and purified. C-terminal Myc-FLAG-tagged full-length human HOIL1 was obtained from Origene. HOIL1 protein (0.05 μg/μL) is incubated with different concentrations of MALT1 in assay buffer (200 mM Tris-HCl, 0.8 M Na citrate, 0.1 mM EGTA, 0.05% CHAPS, 1 mM DTT, pH 7.4) for 2 h at 37° C. Cleavage of HOIL1 was analyzed by gel electrophoresis using a 4-12% Bis-Tris SDS-polyacrylamide (PAGE) gradient gel (Life Technologies). The presence of a small fragment was confirmed by immunoblotting with an N-terminal antibody (anti-N-terminal HOIL1; HPA024185; Sigma). Total HOIL1 was observed using a C-terminal directed antibody (anti-FLAG, clone M2, Sigma). These assays are performed with both the cleavable HOIL1 and, as a negative control, a non-cleavable HOIL1 (where Lys is substituted for Arg165).

In experiment [1] the test system is mTor pathway (e.g., mTORc1 and/or mTORc2) in primary T cells. Put plainly: mTor pathway activation in stimulated primary T cells, pAkt/pS6 staining (Example 3). The experiment is classed as cell-based. The conditions noted are these: primary T cells after anti-CD3/anti-CD28 activation. As to the method: Primary T cells are stimulated to activation and cultured in the presence of IL-2. For stimulation, cells are preincubated with anti-CD3F and anti-CD28 on ice and washed. Cells were stimulated by crosslinking the anti-CD3 antibody with a secondary antibody (e.g., anti-mouse IgG for 10 min) in complete T cell media and then fixed with pre-warmed fixation buffer. Cells are then washed with FACS buffer and permeabilized with permeabilization buffer pre-chilled to −20° C. and incubated for 30 min on ice. Cells are washed and then stained with the following antibodies or appropriate isotype controls anti-pAkt (Ser473) and anti-pS6 (Ser240/244).
MALT1 inhibitors (e.g., Compounds 1.1, 1.26, 1.27, 1.30, 1.33, 2.1, and/or 2.4) are incubated with the primary T cells after activation.

Experiment [2] deals with T cells that lack endogenous CARD11 and bear transfected CARD11 gain-of-function mutations; κB-GFP readout of NFκB signaling. As to the kind of experiment: NF-κB-GFP reporter in T cells transfected with CARD11 gain-of-function cDNA (Example 1). The experiment is classed as cell-based. The conditions noted are these: T cells with CARD11 GOF variants; baseline and after anti-CD3 or PMA/ionomycin; flow cytometry. As for the experimental part: MALT1 inhibitors (e.g., Compounds 1.1, 1.26, 1.27, 1.30, 1.33, 2.1, and/or 2.4) are incubated with T cells that lack endogenous CARD11 and bear transiently transfected CARD11 cDNA bearing gain-of-function mutations. An optional variation is co-transfecting 50:50 a copy of the wildtype CARD11 gene with the CARD11 gain of function mutant. The T-cells include a reporter gene (κB-GFP) that acts as a readout of NFκB signaling. The expression of NF-κB-GFP at baseline and after anti-CD3, or PMA/ionomycin stimulation is measured.
T-Cells bearing GOF variants of CARD11 have elevated baseline activation of NF-κB-GFP, and higher still after stimulation, which is assessed by flow cytometry.
A general note: Flow cytometry measures light scatter and fluorescence of single cells or particles in a stream.

Experiment [3] deals with epithelial cells (e.g., HEK293 cells) bearing CARD14 gain-of-function mutations; κB-GFP readout of NFκB signaling. Put plainly: NF-κB-GFP reporter in epithelial cells transfected with CARD14 gain-of-function cDNA (Example 4). The conditions noted are these: epithelial cells with CARD14 GOF variants; flow cytometry. Type of experiment: cell-based. As to the method:
MALT1 inhibitors (e.g., Compounds 1.1, 1.26, 1.27, 1.30, 1.33, 2.1, and/or 2.4) are incubated with epithelial cells (e.g., HEK293 cells) that lack endogenous CARD14 and bear transiently transfected CARD14 cDNA bearing gain-of-function mutations. The epithelial cells include a reporter gene (κB-GFP) that acts as a readout of NFκB signaling. The expression of NF-κB-GFP at baseline and after anti-CD3, or PMA/ionomycin stimulation is measured.
Epithelial cells bearing gain of function variants of CARD14 have elevated baseline activation of NF-κB-GFP, and higher still after stimulation, which is assessed by flow cytometry.

The test system of the next experiment is patients with BENTA. As to the kind of experiment: Clinical trial of MALT1 inhibitors for BENTA (Example 2). Type of experiment: in vivo. The conditions noted are these: oral once daily, 25 mg/day up to 1000 mg/day. As to the method:
MALT1 inhibitors (e.g., Compounds 1.1, 1.26, 1.27, 1.30, 1.33, 2.1, and/or 2.4) are used to treat patients with BENTA. MALT1 inhibitors (e.g., Compounds 1.1, 1.26, 1.27, 1.30, 1.33, 2.1, and/or 2.4) are formulated in an oral dosage form and administered to patients once daily at a starting dose of 25 mg/day. Alternatively, the daily dose is escalated from 25 mg/day to 1000 mg/day.

For the compound `CO[C@@H](C)c1c(Nc2ccc([C@H](N(C)C(=O)C3CCS(=O)(=O)CC3)C(F)(F)F)cc2C)cnc2nc(Cl)nn12` [Compound 1.33, N-[(1S)-1-[4-({2-chloro-7-[(1S)-1-methoxyethyl]-[1,2,4]triazolo [1,5-a]pyrimidin-6-yl}amino)-3-methylphenyl]-2,2,2-trifluoroethyl]-N-methyl 1,1-dioxo-1λ^6-thiane-4-carboxamide], on full-length human MALT1, the “cleavage of HOIL1” value is listed as “cleavage of HOIL1 is reduced”. Besides, the “mTor pathway (mTORc1 and/or mTORc2) activation” value in experiment [1] is given as “suppress mTor pathway (e.g., mTORc1 and/or mTORc2) activation”. The NF-κB-GFP expression result in experiment [2] is recorded as “lowered NF-κB-GFP expression”. Also, the NF-κB-GFP expression entry in experiment [3] was “lowered NF-κB-GFP expression”. Moreover, in the experiment with patients with BENTA, the BENTA symptoms result is given as “amelioration of their BENTA symptoms” and the “Jun/Fos, NF-κB and/or mTor pathway activation in patients” value (“Jun/Fos … in patients” for short) is “reduced Jun/Fos, and/or NF-κB and/or a mTor pathway (e.g., mTORc1 and/or mTORc2) activation”.
As to `CN(C(=O)[C@H]1CC[C@H](C(=O)O)CC1)[C@@H](c1ccc(Nc2cnn(-c3ccccc3)c2C(F)(F)F)cc1)C(F)(F)F` [Compound 2.1], at full-length human MALT1, the “cleavage of HOIL1” value is given as “cleavage of HOIL1 is reduced”. Further, the “mTor pathway (mTORc1 and/or mTORc2) activation” value in experiment [1] is on record as “suppress mTor pathway (e.g., mTORc1 and/or mTORc2) activation”. Further, the NF-κB-GFP expression result in experiment [2] is “lowered NF-κB-GFP expression”. In experiment [3], the NF-κB-GFP expression result is on record as “lowered NF-κB-GFP expression”. Besides, in the experiment with patients with BENTA, the BENTA symptoms result is on record as “amelioration of their BENTA symptoms” and the “Jun/Fos … in patients” value is listed as “reduced Jun/Fos, and/or NF-κB and/or a mTor pathway (e.g., mTORc1 and/or mTORc2) activation”.
Consider `CO[C@@H](C)c1c(Nc2ccc([C@@H](N(C)C(=O)C3CCS(=O)(=O)CC3)C(F)(F)F)cc2)cnc2nc(Cl)nn12` [Compound 1.26, N-[(1R)-1-[4-({2-chloro-7-[(1S)-1-methoxyethyl]-[L2,4]triazolo[1,5-a]pyrimidin-6-yl}amino)phenyl]-2,2,2-trifluoroethyl]-N-methyl-1,1-dioxo-1λ^6-thiane-4-carboxamide], for which the “cleavage of HOIL1” value on full-length human MALT1 was “cleavage of HOIL1 is reduced”. For the same compound, the “mTor pathway (mTORc1 and/or mTORc2) activation” value in experiment [1] is on record as “suppress mTor pathway (e.g., mTORc1 and/or mTORc2) activation”. Besides, the NF-κB-GFP expression entry in experiment [2] and in experiment [3] was “lowered NF-κB-GFP expression” in each case. Further, in the experiment on patients with BENTA, the BENTA symptoms result is “amelioration of their BENTA symptoms”. Also, the “Jun/Fos … in patients” value with patients with BENTA is “reduced Jun/Fos, and/or NF-κB and/or a mTor pathway (e.g., mTORc1 and/or mTORc2) activation”.
Take `CO[C@H](C)c1c(Nc2ccc([C@@H](N(C)C(=O)C3CCS(=O)(=O)CC3)C(F)(F)F)cc2)cnc2nc(Cl)nn12` [Compound 1.27, N—[(IR)—I-[4-({2-chloro-7-[(1R)-1-methoxyethyl]-[1,2,4]triazolo[1,5-a]pyrimidin-6-yl}amino)phenyl]-2,2,2-trifluoroethyl]-N-methyl-1,1-dioxo-1λ^6-thiane-4-carboxamide]: the “cleavage of HOIL1” value on full-length human MALT1 was “cleavage of HOIL1 is reduced”. In addition, in experiment [1], the “mTor pathway (mTORc1 and/or mTORc2) activation” value is reported as “suppress mTor pathway (e.g., mTORc1 and/or mTORc2) activation”. The NF-κB-GFP expression result in experiment [2] is given as “lowered NF-κB-GFP expression”. For the same compound, the NF-κB-GFP expression result in experiment [3] is “lowered NF-κB-GFP expression”. Moreover, in the experiment on patients with BENTA, the BENTA symptoms result is given as “amelioration of their BENTA symptoms” and the “Jun/Fos … in patients” value was “reduced Jun/Fos, and/or NF-κB and/or a mTor pathway (e.g., mTORc1 and/or mTORc2) activation”.
For `CO[C@@H](C)c1c(Nc2ccc([C@H](N(C)C(=O)C3CCS(=O)(=O)CC3)C(F)(F)F)c(C)c2)cnc2nc(Cl)nn12` [Compound 1.30, N-[(1S)-1-[4-({2-chloro-7-[(1S)-1-methoxyethyl]-[1,2,4]triazolo[1,5-a]pyrimidin-6-yl}amino)-2-methylphenyl]-2,2,2-trifluoroethyl]-N-methyl-1,1-dioxo-1λ^6-thiane-4-carboxamide], the “cleavage of HOIL1” value at full-length human MALT1 is “cleavage of HOIL1 is reduced”. Also, the “mTor pathway (mTORc1 and/or mTORc2) activation” value in experiment [1] was “suppress mTor pathway (e.g., mTORc1 and/or mTORc2) activation”. The NF-κB-GFP expression entry in experiment [2] and in experiment [3] was “lowered NF-κB-GFP expression” throughout. Further, the BENTA symptoms entry in the experiment on patients with BENTA is “amelioration of their BENTA symptoms”. The “Jun/Fos … in patients” value in the experiment on patients with BENTA was “reduced Jun/Fos, and/or NF-κB and/or a mTor pathway (e.g., mTORc1 and/or mTORc2) activation”.
